Columns and labels:
HT1080 tumors = assay: Human fibrosarcoma xenograft, total diameter (tumor + leg); conditions: iv Days 0, 7 and 14, 4-R 0.30 mg/kg
Description: Female athymic nu/nu mice (Harlan Laboratories Models, S.L. Barcelona, Spain or Envigo, Spain) were utilized for all experiments. Animal were housed in individually ventilated cages Sealsafe® Plus, Techniplast S.P.A.), up to ten per cage on a 12-hour light-dark cycle at 21-23° C. and 40-60% humidity. […] Animals were acclimated for at least 5 days prior to tumor implantation with a tumor cell suspension.
HT1080 cells were maintained in vitro at 37° C. with 5% CO2 in Minimum Essential Medium Eagle (MEME) (Sigma-Aldrich, Co). Each animal was orthotopically implanted into gastroecnemius muscle by an intramuscular injection using a 26G needle and a 1 cc syringe at 4-6 weeks of age, with 10×10^6 HT1080 cells, suspended in serum free medium, without antibiotics.
Treatment tolerability was assessed by monitoring body weight evolution, clinical signs of systemic toxicity, as well as evidences of local damage in the injection site.
In xenograft studies with HT1080 cell line: • Total diameter (tumor+leg) measurements were determined by using digital caliper (Fowler Sylvac, S235PAT).
Treatments producing >20% lethality and/or 20% net body weight loss were considered toxic.

[1] = MTD (Maximum Tolerated Dose) determination, single iv administration; assay type: in vivo; conditions: mice, iv/SD (single dose), monitored up to 14 days
Excerpt: (§1) Female CD-1 or Athymic Nude-Fox1 nu/nu mice (Envigo) were utilized for all experiments. […] Animals were acclimated for five days prior to being individually tattoo-identified. Animal protocols were reviewed and approved according to the regional Institutional Animal Care and Use Committees.
(§2) Mice were randomly allocated into experimental groups and intravenously administered, once for the MTD (Maximum Tolerated Dose) determination or one administration a week during three consecutive weeks, for the MTMD (Maximum Tolerated Multiple Dose) determination study. The animals were administered with white formulation or with compound dissolved in the experimental formulation at different concentrations. The volume administered was always […]. Once administered, animals were monitored for clinical signs of systemic toxicity, changes in body weight and mortality up to 14 days after the administration.

[2] = MTMD (Maximum Tolerated Multiple Dose) determination, iv weekly x 3; assay type: in vivo; conditions: mice; iv/Q7d × 3
Excerpt: as §1, §2

[3] = system: HT29 cells (colorectal adenocarcinoma); assay: cells; conditions: Homo sapiens, HT-29, 72 h
Procedure, shortened: (§3)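 Cells seeded at 5000/well, attached 18 h, then exposed 72 h to ten 2/5 serial dilutions (10 to 0.003 μg/mL; 1% DMSO final) in triplicate; time-zero plate fixed. SRB staining after glutaraldehyde fixation; growth effects by NCI algorithm, four-parameter logistic fit.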

[4] = system: PSN1 cells (pancreas adenocarcinoma); assay: cells; conditions: Homo sapiens, PSN1, 72 h, read-out: TGI
Procedure, shortened: as §3

[5] = system: MDA-MB-231 cells (breast adenocarcinoma); assay: cells; conditions: Homo sapiens, MDA-MB-231, 72 h
Procedure, shortened: as §3

[6] = system: A549 cells (lung carcinoma, NSCLC); assay: cells; conditions: Homo sapiens, A549, 72 h
Procedure, shortened: as §3

Compound	Total diameter (tumor + leg) (HT1080 tumors; Day 0, PM01183 […]) [mm]	Total diameter (tumor + leg) (HT1080 tumors; Day 2, PM01183 […]) [mm]	Total diameter (tumor + leg) (HT1080 tumors; Day 7, PM01183 […]) [mm]	Total diameter (tumor + leg) (HT1080 tumors; Day 9, PM01183 […]) [mm]	Total diameter (tumor + leg) (HT1080 tumors; Day 14, PM01183 […]) [mm]	Total diameter (tumor + leg) (HT1080 tumors; Day 18, PM01183 […]) [mm]	Total diameter (tumor + leg) (HT1080 tumors; Day 21, PM01183 […]) [mm]	Total diameter (tumor + leg) (HT1080 tumors; Day 23, PM01183 […]) [mm]	Total diameter (tumor + leg) (HT1080 tumors; Day 25, PM01183 […]) [mm]	Total diameter (tumor + leg) (HT1080 tumors; Day 28) [mm]	MTD [1] [mg/kg]	MTMD [2] [mg/kg]	CC50 ([3]; read-out: LC50) [µM]	IC (total growth inhibition) ([3]; read-out: TGI) [µM]	IC (total growth inhibition) [4] [µM]	CC50 ([5]; read-out: LC50) [µM]	IC (total growth inhibition) ([5]; read-out: TGI) [µM]	CC50 ([6]; read-out: LC50) [µM]	IC (total growth inhibition) ([6]; read-out: TGI) [µM]	MTD at 14 days ([1]; female, mouse, in vivo) [mg/kg]
COc1c(C)cc2c(c1O)[C@@H]1[C@@H]3[C@@H]4SC[C@]5(N[C@@H](CO)Cc6c5[nH]c5ccccc65)C(=O)OC[C@@H](c5c6c(c(C)c(OC(C)=O)c54)OCO6)N3[C@@H](O)[C@H](C2)N1C [Compound 4-R]	8.1	8.6	8.7	9.0	9.3	10.3	11.5	13.3	15.8	18.0	0.25	0.30								
COc1ccc2[nH]c3c(c2c1)C[C@H](CO)N[C@]31CS[C@@H]2c3c(OC(C)=O)c(C)c4c(c3[C@H](COC1=O)N1[C@@H]2[C@H]2c3c(cc(C)c(OC)c3O)C[C@@H]([C@@H]1O)N2C)OCO4 [Compound 19-R]												0.15	> 0.123	0.00172	0.00135	> 0.123	0.00135	> 0.123	0.00356	0.15

Reference: patent publication US12384800B2, “Antitumoral compounds” (priority 2017, dated 2025)
